Each molecule was assayed on Glomerella lagenarium (Colletotrichum lagenarium) (assay: Example A3: Glomerella lagenarium (Colletotrichum lagenarium) / liquid culture (anthracnose)). Settings: Colletotrichum orbiculare, 3-4 days after application, compared to untreated control.
Assay type: cell-based

Compound | inhibition of growth at 20 ppm
CCCCCNC(=O)c1nc(N(C#N)c2cc(F)nc(F)c2)sc1C [X.20, 2-[cyano-(2,6-difluoro-4-pyridyl)amino]-5-methyl-N-pentyl-thiazole-4-carboxamide] | ≥ 80%

These molecules were tested on Mycosphaerella arachidis (Cercospora arachidicola) (assay: Example A7: Mycosphaerella arachidis (Cercospora arachidicola) / liquid culture (early leaf spot)). Settings: 4-5 days after application, compared to untreated control.
Assay type: cell-based

Compound | inhibition of growth at 20 ppm
Cc1sc(N(C#N)c2cc(F)nc(F)c2)nc1C(=O)NCC(C)C [X.15, 2-[cyano-(2,6-difluoro-4-pyridyl)amino]-N-isobutyl-5-methyl-thiazole-4-carboxamide] | ≥ 80%

Each molecule was assayed on Puccinia recondita f. sp. tritici (assay: not given). Settings: in Triticum aestivum, foliar, read-out: control of Puccinia recondita f, sp. tritici.

Compound | pest or weed control at 200 ppm
Cc1sc(N(C#N)c2cc(F)nc(F)c2)nc1C(=O)NC1CCC1 [X.02, 2-[cyano-(2,6-difluoro-4-pyridyl)amino]-N-cyclobutyl-5-methyl-thiazole-4-carboxamide] | ≥ 80%
Cc1sc(N(C#N)c2cc(F)cc(F)c2)nc1C(=O)NC1CCC1(C)C (stereo not drawn) [X.03, 2-(N-cyano-3,5-difluoro-anilino)-N-(2,2-dimethylcyclobutyl)-5-methyl-thiazole-4-carboxamide] | ≥ 80%
Cc1sc(N(C#N)c2cc(F)nc(F)c2)nc1C(=O)NC1CCC1(C)C (stereo not drawn) [X.05, 2-[cyano-(2,6-difluoro-4-pyridyl)amino]-N-(2,2-dimethylcyclobutyl)-5-methyl-thiazole-4-carboxamide] | ≥ 80%
Cc1sc(N(C#N)c2cc(F)nc(F)c2)nc1C(=O)NC1CCC12CCCC2 (stereo not drawn) [X.07, 2-[cyano-(2,6-difluoro-4-pyridyl)amino]-5-methyl-N-spiro[3.4]octan-3-yl-thiazole-4-carboxamide] | ≥ 80%
Cc1sc(N(C#N)c2cc(F)nc(F)c2)nc1C(=O)NC1CCC12Cc1ccccc1C2 (stereo not drawn) [X.08, 2-[cyano-(2,6-difluoro-4-pyridyl)amino]-5-methyl-N-spiro[cyclobutane-2,2′-indane]-1-yl-thiazole-4-carboxamide] | ≥ 80%
Cc1sc(N(C#N)c2cc(F)nc(F)c2)nc1C(=O)NC1CCC12CCC2 (stereo not drawn) [X.09, 2-[cyano-(2,6-difluoro-4-pyridyl)amino]-5-methyl-N-spiro[3.3]heptan-3-yl-thiazole-4-carboxamide] | ≥ 80%
Cc1sc(N(C#N)c2cc(F)nc(F)c2)nc1C(=O)NCC1(CC2CC2)CC1 [X.10, 2-[cyano-(2,6-difluoro-4-pyridyl)amino]-N-[[1-(cyclopropylmethyl)cyclopropyl]methyl]-5-methyl-thiazole-4-carboxamide] | ≥ 80%
Cc1sc(N(C#N)c2cc(F)cc(F)c2)nc1C(=O)NC1(C)CCCC1 [X.11, 2-(N-cyano-3,5-difluoro-anilino)-5-methyl-N-(1-methylcyclopentyl)thiazole-4-carboxamide] | ≥ 80%
Cc1sc(N(C#N)c2cc(F)nc(F)c2)nc1C(=O)NC1(C)CCCC1 [X.12, 2-[cyano-(2,6-difluoro-4-pyridyl)amino]-5-methyl-N-(1-methylcyclopentyl)thiazole-4-carboxamide] | ≥ 80%
CCCCCCNC(=O)c1nc(N(C#N)c2cc(F)nc(F)c2)sc1C [X.14, 2-[cyano-(2,6-difluoro-4-pyridyl)amino]-N-hexyl-5-methyl-thiazole-4-carboxamide] | ≥ 80%
Cc1sc(N(C#N)c2cc(F)nc(F)c2)nc1C(=O)NCC(C)C [X.15, 2-[cyano-(2,6-difluoro-4-pyridyl)amino]-N-isobutyl-5-methyl-thiazole-4-carboxamide] | ≥ 80%
Cc1sc(N(C#N)c2cc(F)nc(F)c2)nc1C(=O)NC(C)c1ccccc1 (stereo not drawn) [X.16, 2-[cyano-(2,6-difluoro-4-pyridyl)amino]-5-methyl-N-(1-phenylethyl)thiazole-4-carboxamide] | ≥ 80%
Cc1sc(N(C#N)c2cc(F)nc(F)c2)nc1C(=O)NCC(C)(C)C [X.18, 2-[cyano-(2,6-difluoro-4-pyridyl)amino]-N-(2,2-dimethylpropyl)-5-methyl-thiazole-4-carboxamide] | ≥ 80%
CCCCCNC(=O)c1nc(N(C#N)c2cc(F)nc(F)c2)sc1C [X.20, 2-[cyano-(2,6-difluoro-4-pyridyl)amino]-5-methyl-N-pentyl-thiazole-4-carboxamide] | ≥ 80%
Cc1sc(N(C#N)c2cc(F)nc(F)c2)nc1C(=O)NCc1ccccc1 [X.23, N-benzyl-2-[cyano-(2,6-difluoro-4-pyridyl)amino]-5-methyl-thiazole-4-carboxamide] | ≥ 80%
CCCCNC(=O)c1nc(N(C#N)c2cc(F)nc(F)c2)sc1C [X.24, N-butyl-2-[cyano-(2,6-difluoro-4-pyridyl)amino]-5-methyl-thiazole-4-carboxamide] | ≥ 80%

From patent US12336537B2, “Fungicidal compositions” (SYNGENTA CROP PROTECTION AG, priority 2020, dated 2025)
